SMILES strings stand for the structures. Converted amounts (≈) assume the structure as drawn. A value given as a limit tells only on which side of the number the result lay.

The experiment concerns Enterococcus faecalis ATCC 29212. The experiment in a line: MIC against Enterococcus faecalis ATCC 29212. It is filed as cell-based. Conditions: ATCC29212; Enterococcus faecalis ATCC 29212; read-out: MICs against Enterococcus faecalis, Activity. How it is done:
Institute. Methods for Dilution Antimicrobial Susceptibility Tests for Bacteria That Grow Aerobically; Approved Standard—Seventh Edition. Document M7-A7. CLSI, Wayne, Pa., 2006; Clinical Laboratories and Standards Institute. Methods for Antimicrobial Susceptibility Testing of Anaerobic Bacteria; Approved Standard—Sixth Edition. Document M11-A6. CLSI, Wayne, Pa., 2004).
Compounds of this invention were tested for antimicrobial activity by susceptibility testing in liquid or on solid media. MICs for compounds against each strain were determined by the broth microdilution or agar dilution method according to the guidelines of the Clinical Laboratories and Standards Institute, formerly the National Committee for Clinical Laboratory Standards (Clinical Laboratories and Standards Institute. Methods for Dilution Antimicrobial Susceptibility Tests for Bacteria That Grow Aerobically; Approved Standard—Seventh Edition. Document M7-A7. CLSI, Wayne, Pa., 2006; Clinical Laboratories and Standards Institute. Methods for Antimicrobial Susceptibility Testing of Anaerobic Bacteria; Approved Standard—Sixth Edition. Document M11-A6. CLSI, Wayne, Pa., 2004).
As for `CCNC(=O)Nc1nc2cc(-c3cccnc3)cc(-c3ncccc3N)c2s1` [Example 94, 1-[7-(3-Amino-pyridin-2-yl)-5-pyridin-3-yl-benzothiazol-2-yl]-3-ethyl-urea], the MIC fell in the range of 2 to 16 µg/mL (≈ 5.12 to 41 µM).

In the case of `CCNC(=O)Nc1nc2cc(-c3cccnc3C)cc(-c3ccccn3)c2s1` [Example 52, 1-Ethyl-3-[5-(2-methyl-pyridin-3-yl)-7-pyridin-2-yl-benzothiazol-2-yl]-urea], the MIC fell in the range of 0.25 to 1 µg/mL (≈ 0.642 to 2.57 µM).

Turning to `CCNC(=O)Nc1nc2cc(-c3cccnc3)cc(-c3ccc(C(N)=O)cn3)c2s1` [Example 98, 6-[2-(3-Ethyl-ureido)-5-pyridin-3-yl-benzothiazol-7-yl]-nicotinamide], the MIC lay within 0.25 to 1 µg/mL (≈ 0.597 to 2.39 µM). Then `CCNC(=O)Nc1nc2cc(-c3cnc(N)nc3)cc(-c3cnc(N)nc3)c2s1` [Example 145, 1-[5,7-Bis-(2-amino-pyrimidin-5-yl)-benzothiazol-2-yl]-3-ethyl-urea], with 2 to 16 µg/mL (≈ 4.91 to 39.3 µM); and `CCNC(=O)Nc1nc2cc(-c3cccnc3)cc(-c3cnn(C)c3)c2s1` [Example 83, 1-Ethyl-3-[7-(1-methyl-1H-pyrazol-4-yl)-5-pyridin-3-yl-benzothiazol-2-yl]-urea], with 0.25 to 1 µg/mL (≈ 0.661 to 2.64 µM). Then `CCNC(=O)Nc1nc2cc(-c3ccc(NC(C)=O)nc3)cc(-c3ccc(NC(C)=O)nc3)c2s1` [Example 148, N-{5-[7-(6-Acetylamino-pyridin-3-yl)-2-(3-ethyl-ureido)-benzothiazol-5-yl]-pyridin-2-yl}-acetamide], with 0.25 to 1 µg/mL (≈ 0.511 to 2.04 µM); and `CCNC(=O)Nc1nc2cc(-c3cccnc3)cc(-c3cccc(N(C)C)n3)c2s1` [Example 168, 1-[7-(6-Dimethylamino-pyridin-2-yl)-5-pyridin-3-yl-benzothiazol-2-yl]-3-ethyl-urea], with 0.25 to 1 µg/mL (≈ 0.597 to 2.39 µM). Then `CCNC(=O)Nc1nc2cc(-c3cncc(C)c3)cc(-c3ccccn3)c2s1` [Example 36, 1-Ethyl-3-[5-(5-methyl-pyridin-3-yl)-7-pyridin-2-yl-benzothiazol-2-yl]-urea], with less than 0.25 µg/mL; and `CCNC(=O)Nc1nc2cc(-c3ccc(N)nc3)cc(-c3cccnc3)c2s1` [Example 17, 1-[5-(6-Amino-pyridin-3-yl)-7-pyridin-3-yl-benzothiazol-2-yl]-3-ethyl-urea], with 0.25 to 1 µg/mL (≈ 0.64 to 2.56 µM). In the case of `CCNC(=O)Nc1nc2cc(-c3cccnc3)cc(-c3cc(CO)ccn3)c2s1` [Example 121, 1-Ethyl-3-[7-(4-hydroxymethyl-pyridin-2-yl)-5-pyridin-3-yl-benzothiazol-2-yl]-urea], the MIC is less than 0.25 µg/mL. To `CCNC(=O)Nc1nc2cc(-c3ccc(OC)nc3)cc(-c3cccnc3)c2s1` [Example 29, 1-Ethyl-3-[5-(6-methoxy-pyridin-3-yl)-7-pyridin-3-yl-benzothiazol-2-yl]-urea] belongs 0.25 to 1 µg/mL (≈ 0.617 to 2.47 µM); to `CCNC(=O)Nc1nc2cc(-c3cccnc3)cc(-c3cncn3C)c2s1` [Example 164, 1-Ethyl-3-[7-(3-methyl-3H-imidazol-4-yl)-5-pyridin-3-yl-benzothiazol-2-yl]-urea], 2 to 16 µg/mL (≈ 5.28 to 42.3 µM); to `CCNC(=O)Nc1nc2cc(-n3ccnc3)cc(-c3ccccn3)c2s1` [Example 142, 1-Ethyl-3-(5-imidazol-1-yl-7-pyridin-2-yl-benzothiazol-2-yl)-urea], less than 0.25 µg/mL. In the case of `CCNC(=O)Nc1nc2cc(-c3ccc(NC(C)=O)nc3)cc(-c3cccnc3)c2s1` [Example 20, N-{5-[2-(3-Ethyl-ureido)-7-pyridin-3-yl-benzothiazol-5-yl]-pyridin-2-yl}-acetamide], the MIC was 0.25 to 1 µg/mL (≈ 0.578 to 2.31 µM). To `CCNC(=O)Nc1nc2cc(-c3cccnc3)cc(-c3ccc(CN4CCOCC4)cn3)c2s1` [Example 120, 1-Ethyl-3-[7-(5-morpholin-4-ylmethyl-pyridin-2-yl)-5-pyridin-3-yl-benzothiazol-2-yl]-urea] belongs 0.25 to 1 µg/mL (≈ 0.527 to 2.11 µM); to `CCNC(=O)Nc1nc2cc(-c3cnccn3)cc(-c3cnccn3)c2s1` [Example 10, 1-(5,7-Di-pyrazin-2-yl-benzothiazol-2-yl)-3-ethyl-urea], less than 0.25 µg/mL. To `CCNC(=O)Nc1nc2cc(-c3ccc(CN4CCOCC4)cc3)cc(-c3cccnc3)c2s1` [Example 21, 1-Ethyl-3-[5-(4-morpholin-4-ylmethyl-phenyl)-7-pyridin-3-yl-benzothiazol-2-yl]-urea] belongs 2 to 16 µg/mL (≈ 4.22 to 33.8 µM); to `CCNC(=O)Nc1nc2cc(-c3cccnc3)cc(-c3cccc(C)n3)c2s1` [Example 177, 1-Ethyl-3-[7-(6-methyl-pyridin-2-yl)-5-pyridin-3-yl-benzothiazol-2-yl]-urea], less than 0.25 µg/mL; to `CCNC(=O)Nc1nc2cc(-c3ccnc(O)c3)cc(-c3ccccn3)c2s1` [Example 56, 1-Ethyl-3-[5-(2-hydroxy-pyridin-4-yl)-7-pyridin-2-yl-benzothiazol-2-yl]-urea], 0.25 to 1 µg/mL (≈ 0.639 to 2.55 µM). Consider `CCNC(=O)Nc1nc2cc(-c3cccnc3)cc(-c3cccn3C)c2s1` [Example 11, 1-Ethyl-3-[7-(1-methyl-1H-pyrrol-2-yl)-5-pyridin-3-yl-benzothiazol-2-yl]-urea], for which the MIC was in the range of 0.25 to 1 µg/mL (≈ 0.662 to 2.65 µM). In the case of `CCNC(=O)Nc1nc2cc(-c3cnccc3N)cc(-c3cccnc3)c2s1` [Example 44, 1-[5-(4-Amino-pyridin-3-yl)-7-pyridin-3-yl-benzothiazol-2-yl]-3-ethyl-urea], the MIC lay in the range of 2 to 16 µg/mL (≈ 5.12 to 41 µM). Then `CCNC(=O)Nc1nc2cc(-c3ccc(NC(=O)CNC(C)(C)C)nc3)cc(-c3ccccn3)c2s1` [Example 55, 2-tert-Butylamino-N-{5-[2-(3-ethyl-ureido)-7-pyridin-2-yl-benzothiazol-5-yl]-pyridin-2-yl}-acetamide], with 0.25 to 1 µg/mL (≈ 0.496 to 1.99 µM).

As for `CCNC(=O)Nc1nc2cc(-c3cnc4[nH]ccc4c3)cc(-c3cccnc3)c2s1` [Example 49, 1-Ethyl-3-[7-pyridin-3-yl-5-(1H-pyrrolo[2,3-b]pyridin-5-yl)-benzothiazol-2-yl]-urea], the MIC was in the range of 0.25 to 1 µg/mL (≈ 0.603 to 2.41 µM).

Take `CCNC(=O)Nc1nc2cc(-c3cccnc3)cc(-c3cccc(OC)c3)c2s1` [Example 86, 1-Ethyl-3-[7-(3-methoxy-phenyl)-5-pyridin-3-yl-benzothiazol-2-yl]-urea]: the MIC was 0.25 to 1 µg/mL (≈ 0.618 to 2.47 µM).

In the case of `CCNC(=O)Nc1nc2cc(-c3ccc(N(C)C)nc3)cc(-c3ccccn3)c2s1` [Example 38, 1-[5-(6-Dimethylamino-pyridin-3-yl)-7-pyridin-2-yl-benzothiazol-2-yl]-3-ethyl-urea], the MIC is 0.25 to 1 µg/mL (≈ 0.597 to 2.39 µM). Then `CCNC(=O)Nc1nc2cc(-c3ccc(NC(C)=O)nc3)cc(-c3ccc(N)cn3)c2s1` [Example 135, N-{5-[7-(5-Amino-pyridin-2-yl)-2-(3-ethyl-ureido)-benzothiazol-5-yl]-pyridin-2-yl}-acetamide], with 0.25 to 1 µg/mL (≈ 0.559 to 2.23 µM); and `CCNC(=O)Nc1nc2cc(-n3ccccc3=O)cc(-c3cccnc3)c2s1` [Example 141, 1-Ethyl-3-[5-(2-oxo-2H-pyridin-1-yl)-7-pyridin-3-yl-benzothiazol-2-yl]-urea], with 2 to 16 µg/mL (≈ 5.11 to 40.9 µM); and `CCNC(=O)Nc1nc2cc(-c3cccnc3)cc(-c3ccccc3F)c2s1` [Example 75, 1-Ethyl-3-[7-(2-fluoro-phenyl)-5-pyridin-3-yl-benzothiazol-2-yl]-urea], with 0.25 to 1 µg/mL (≈ 0.637 to 2.55 µM). Regarding `CCNC(=O)Nc1nc2cc(-c3cccnc3)cc(-c3ccc(OC)cc3)c2s1` [Example 84, 1-Ethyl-3-[7-(4-methoxy-phenyl)-5-pyridin-3-yl-benzothiazol-2-yl]-urea], the MIC was 0.25 to 1 µg/mL (≈ 0.618 to 2.47 µM).

The values are drawn from patent US8481544B2, “Antibacterial compositions” (Biota Europe Limited, priority 2006, dated 2013).
